Data as given in publication PMC9617636 (Antiviral Research, 2022).
Like-named read-outs stand apart in the source and are kept apart here.

Experiments:
SARS-CoV-2 GFP = type: cell-based
[1] = tested on: −1 PRF signal of SARS-CoV-2; type: cell-based
in vitro [2] = conditions: African green monkey
SARS-CoV-2 [3] = assay: Antiviral plaque assay in Vero-E6 cells; type: cell-based
in vitro [4] = conditions: dog
SARS-CoV-2 [5] = type: cell-based
SARS-CoV-2 viral RNA = type: cell-based
in vitro [6] = conditions: human
Influenza A virus (H1N1) = assay: Antiviral activity against Influenza A virus; type: cell-based, Influenza virus A/Netherlands/602/2009
Mucilair tissues = type: cell-based, human; conditions: MTS assay at 96hpi, 30 μg/tissue
SARS-CoV-2 nucleocapsid = type: cell-based
B.1.1.7 SARS-CoV-2 = assay: Antiviral assay in Calu3 cells; type: cell-based
A549 cells = type: cell-based; conditions: 600 μM
in vitro [7] = conditions: human; remark: listed apart in the source
HCoV-229e = assay: microbe, parasite or virus in culture; type: cell-based; conditions: Human coronavirus 229E
Vero-E6 cells = conditions: listed as of SARS-CoV-2 B.1.1.7 (Alpha)
[8] = CC50, row of SARS-CoV-2 B.1.1.7 (Alpha)
[9] = Severe acute respiratory syndrome coronavirus 2, Vero C1008, read-out: EC50 (95% CI)
[10] = Severe acute respiratory syndrome coronavirus 2, Vero C1008, read-out: EC90 (95% CI), SARS-CoV-2 B.1.1.7 (Alpha), Vero-E6
[11] = Severe acute respiratory syndrome coronavirus 2, Calu-3, read-out: EC50 (95% CI)

**Q.** For `CN[C@@H]1[C@@H](O)[C@@H](O[C@@H]2[C@@H](O)[C@H](O[C@H]3O[C@H]([C@@H](C)O)[C@@H](O)[C@H](O)[C@H]3N)[C@@H](N)C[C@H]2N)OC[C@]1(C)O` [Geneticin], which “GFP intensity in the infected cells” value (SARS-CoV-2 GFP) is on record?
**A.** Its value is “significantly reduced”.

**Q.** What about the “number of infected (GFP positive) cells” value (SARS-CoV-2 GFP) of the same molecule?
**A.** Its value is “marked reduction in the number of infected cells”.

**Q.** And the “−1 PRF efficiency” value [1]?
**A.** Its value is “reduction in the −1 PRF efficiency”.

**Q.** And the CC50 (in vitro [2]; [8])?
**A.** The CC50 was 3950 µM.

**Q.** And the CC50 (in vitro [2]; CC50, row of SARS-CoV-2 B.1.351 (Beta))?
**A.** Its CC50 is 3950 µM.

**Q.** What about the CC50 (in vitro [2]; CC50, row of SARS-CoV-2 B.1.617.2 (Delta)) of the same molecule?
**A.** Its CC50 is 3950 µM.

**Q.** And the CC50 (in vitro [2]; CC50, row of SARS-CoV-2 BA.1 (Omicron))?
**A.** The CC50 was 934 µM.

**Q.** And the EC50 (SARS-CoV-2 [3]; [9])?
**A.** Its EC50 is 47.2 µM.

**Q.** What about the EC50 (SARS-CoV-2 [3]; Severe acute respiratory syndrome coronavirus 2, Vero C1008, read-out: EC50 (95% CI), SARS-CoV-2 B.1.160, Vero-E6) of the same molecule?
**A.** The EC50 was 31.6 µM.

**Q.** And the EC50 (SARS-CoV-2 [3]; Severe acute respiratory syndrome coronavirus 2, Vero C1008, read-out: EC50 (95% CI), SARS-CoV-2 B.1.177, Vero-E6)?
**A.** Its EC50 is 102 µM.

**Q.** And the EC50 (SARS-CoV-2 [3]; Severe acute respiratory syndrome coronavirus 2, Vero C1008, read-out: EC50 (95% CI), SARS-CoV-2 B.1.258, Vero-E6)?
**A.** Its EC50 is 42.4 µM.

**Q.** And the EC50 (SARS-CoV-2 [3]; Severe acute respiratory syndrome coronavirus 2, Vero C1008, read-out: EC50 (95% CI), SARS-CoV-2 B.1.617.2 (Delta), Vero-E6)?
**A.** Its EC50 is 32.8 µM.

**Q.** What about the EC50 (SARS-CoV-2 [3]; Severe acute respiratory syndrome coronavirus 2, Vero C1008, read-out: EC50 (95% CI), SARS-CoV-2 BA.1 (Omicron), Vero-E6) of the same molecule?
**A.** Its EC50 is 25.7 µM.

**Q.** What about the EC90 (SARS-CoV-2 [3]; [10]) of the same molecule?
**A.** Its EC90 is 245 µM.

**Q.** And the EC90 (SARS-CoV-2 [3]; Severe acute respiratory syndrome coronavirus 2, Vero C1008, read-out: EC90 (95% CI), SARS-CoV-2 B.1.160, Vero-E6)?
**A.** The EC90 was 150 µM.

**Q.** What about the EC90 (SARS-CoV-2 [3]; Severe acute respiratory syndrome coronavirus 2, Vero C1008, read-out: EC90 (95% CI), SARS-CoV-2 B.1.177, Vero-E6) of the same molecule?
**A.** Its EC90 is 407 µM.

**Q.** And the EC90 (SARS-CoV-2 [3]; Severe acute respiratory syndrome coronavirus 2, Vero C1008, read-out: EC90 (95% CI), SARS-CoV-2 B.1.258, Vero-E6)?
**A.** The EC90 was 163 µM.

**Q.** What about the EC90 (SARS-CoV-2 [3]; Severe acute respiratory syndrome coronavirus 2, Vero C1008, read-out: EC90 (95% CI), SARS-CoV-2 B.1.351 (Beta), Vero-E6) of the same molecule?
**A.** Its EC90 is 542 µM.

**Q.** What about the EC90 (SARS-CoV-2 [3]; Severe acute respiratory syndrome coronavirus 2, Vero C1008, read-out: EC90 (95% CI), SARS-CoV-2 B.1.617.2 (Delta), Vero-E6) of the same molecule?
**A.** Its EC90 is 201 µM.

**Q.** What about the EC90 (SARS-CoV-2 [3]; Severe acute respiratory syndrome coronavirus 2, Vero C1008, read-out: EC90 (95% CI), SARS-CoV-2 BA.1 (Omicron), Vero-E6) of the same molecule?
**A.** The EC90 was 155 µM.

**Q.** What about the CC50 (in vitro [4]) of the same molecule?
**A.** The CC50 was 5840 µM.

**Q.** What about the “protection from viral infection (apical viral RNA and plaque titre)” value (SARS-CoV-2 [5]) of the same molecule?
**A.** Its value is “significant protection from viral infections”.

**Q.** What about the “viral RNA replication” value (SARS-CoV-2 viral RNA) of the same molecule?
**A.** The value was “inhibition of viral RNA replication”.

**Q.** What about the CC50 (in vitro [6]) of the same molecule?
**A.** The CC50 was 684 µM.

**Q.** What about the EC50 (Influenza A virus (H1N1); read-out: EC50 (95% CI)) of the same molecule?
**A.** Its EC50 is greater than 600 µM.

**Q.** What about the “antiviral activity against Influenza A virus (H1N1)” value (Influenza A virus (H1N1); unrelated virus) of the same molecule?
**A.** Its value is “lack of activity”.

**Q.** And the “viability of the tissues” value (Mucilair tissues)?
**A.** Its value is “without a decrease in viability”.

**Q.** What about the “viral protein production (nucleocapsid over alpha tubulin)” value (SARS-CoV-2 nucleocapsid) of the same molecule?
**A.** The value was “decrease in viral protein production”.

**Q.** And the EC50 (B.1.1.7 SARS-CoV-2; [11])?
**A.** Its EC50 is 164 µM.

**Q.** What about the “protein synthesis in the cell” value (A549 cells) of the same molecule?
**A.** Its value is “not impaired”.

**Q.** And the CC50 (in vitro [7])?
**A.** The CC50 was greater than 600 µM.

**Q.** And the EC50 (HCoV-229e; Huh-7, read-out: EC50 (95% CI))?
**A.** Its EC50 is 7.21 µM.

**Q.** And the EC90 (HCoV-229e; Huh-7, read-out: EC90 (95% CI))?
**A.** Its EC90 is 23.9 µM.

**Q.** For `CCNCC1CCN(c2c(F)cc3c(=O)c(C(=O)O)cn(CC)c3c2F)C1` (stereo not shown) [Merafloxacin], which “−1 PRF efficiency” value [1] is on record?
**A.** The value was “reduction in the −1 PRF efficiency”.

**Q.** What about the CC50 (in vitro [2]; [8]) of the same molecule?
**A.** Its CC50 is greater than 100 µM.

**Q.** And the EC50 (SARS-CoV-2 [3]; [9])?
**A.** The EC50 was 23.7 µM.

**Q.** And the EC90 (SARS-CoV-2 [3]; [10])?
**A.** The EC90 was 116 µM.

**Q.** What about the “viral RNA replication” value (SARS-CoV-2 viral RNA) of the same molecule?
**A.** The value was “inhibition of viral RNA replication”.

**Q.** And the “viral protein production (nucleocapsid over alpha tubulin)” value (SARS-CoV-2 nucleocapsid)?
**A.** Its value is “decrease in viral protein production”.

**Q.** And the EC50 (B.1.1.7 SARS-CoV-2; [11])?
**A.** Its EC50 is 21.8 µM.

**Q.** What about the CC50 (in vitro [7]) of the same molecule?
**A.** Its CC50 is greater than 100 µM.

**Q.** Which results are given for Sotrovimab?
**A.** CC50 (Calu3 cells): > 0.68 µM; EC50 (SARS-CoV-2 [3]; read-out: EC50 (95% CI)): 0.00013 µM; EC90 (SARS-CoV-2 [3]; read-out: EC90 (95% CI), SARS-CoV-2 B.1.1.7 (Alpha), Vero-E6): 0.0042 µM; CC50 (Vero-E6 cells): > 0.68 µM; EC50 (B.1.1.7 SARS-CoV-2; read-out: EC50 (95% CI)): 0.0041 µM
